pIC50: −log10 of the molar value.
Key:
[1] = target: T1, Spermidine synthase (Trypanosoma cruzi (strain CL Brener), UniProt Q4CXJ6); assay: Inhibition of Trypanosoma cruzi strain CL Brener N-terminal poly-His tagged spermidine synthase expressed in Escherichia coli BL21(DE3) using 50 uM putrescine as substrate in presence of 100 uM dcSAM incubated for 1 hr by NMR analysis based constant-time batch reaction assay
T1 sequence (Q4CXJ6 whole entry): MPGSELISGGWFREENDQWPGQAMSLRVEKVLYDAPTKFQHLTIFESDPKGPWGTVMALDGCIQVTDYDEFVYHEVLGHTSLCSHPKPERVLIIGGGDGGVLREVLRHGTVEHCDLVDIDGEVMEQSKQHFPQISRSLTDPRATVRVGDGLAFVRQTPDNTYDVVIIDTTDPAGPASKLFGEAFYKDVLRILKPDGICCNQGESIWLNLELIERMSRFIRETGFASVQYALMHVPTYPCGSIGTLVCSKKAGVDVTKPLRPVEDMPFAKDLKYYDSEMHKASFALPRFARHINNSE

[2] = target: T1, Spermidine synthase
Description: Inhibition of Trypanosoma cruzi strain CL Brener N-terminal poly-His tagged spermidine synthase expressed in Escherichia coli BL21(DE3) using 0.5 mM putrescine as substrate in presence of 1 mM dcSAM by FA-real time NMR analysis

[3] = target: T2, Spermidine synthase (Sus scrofa, UniProt Q6QA75); assay: Inhibition of porcine spermidine synthase assessed as production of labeled 5'-methylthioadenosine using putrescine as substrate by enzymatic assay in presence of 10 uM decarboxylated AdoMet
T2 sequence (Q6QA75 whole entry): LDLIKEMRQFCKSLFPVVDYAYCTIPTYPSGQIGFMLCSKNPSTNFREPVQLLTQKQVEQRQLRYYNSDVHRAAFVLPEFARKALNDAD

| Structure (SMILES) | pIC50 [1] | pIC50 [2] | pIC50 [3] |
| --- | --- | --- | --- |
| NC1=Nc2ccccc2SC1 | 4.00 | – | – |
| C[C@H]1CC[C@H](N)CC1 | 7.03 | 6.21 | 5.77 |
